# Reference: PubChem BioAssay AID212 (DTP/NCI, 2004)
# Values joined by “and” are separate entries in the source; they are usually repeats but may differ in a detail not shown here. Equal entries are not always repeated. Results filed as inconclusive are left out.
# Test system: BDF1 mice, colon carcinoma 38 sc, T/C %
# Assay: NCI In Vivo Anticancer Drug Screen. Data for tumor model Colon Carcinoma 38 (subcutaneous) in B6D2F1 (BDF1) mice
# Method in brief: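 Compound antitumor activity was assessed in mice carrying transplantable tumors. Survival or tumor size was recorded, and each value is the treated-group measurement divided by that of the vehicle-treated control group.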
# [1] = endpoint: median tumor weight (est.), dose: 50.0 mg/kg/injection, schedule: Q07DX002 (ip), vehicle: saline with Tween-80, higher = larger tumour
# [2] = endpoint: median tumor weight (est.), dose: 100.0 mg/kg/injection, schedule: Q07DX002 (ip), vehicle: Klucel (hydroxypropylcellulose) (HPC), higher = larger tumour
# [3] = endpoint: median tumor weight (est.), dose: 200.0 mg/kg/injection, schedule: Q07DX002 (ip), vehicle: Klucel (hydroxypropylcellulose) (HPC), higher = larger tumour
# [4] = endpoint: median tumor weight (est.), dose: 400.0 mg/kg/injection, schedule: Q07DX002 (ip), vehicle: Klucel (hydroxypropylcellulose) (HPC), higher = larger tumour
# [5] = endpoint: median tumor weight (est.), dose: 800.0 mg/kg/injection, schedule: Q07DX002 (ip), vehicle: Klucel (hydroxypropylcellulose) (HPC), higher = larger tumour
# [6] = endpoint: median tumor weight (est.), dose: 25.0 mg/kg/injection, schedule: Q07DX002 (ip), vehicle: Klucel (hydroxypropylcellulose) (HPC), higher = larger tumour
# [7] = endpoint: median tumor weight (est.), dose: 50.0 mg/kg/injection, schedule: Q07DX002 (ip), vehicle: Klucel (hydroxypropylcellulose) (HPC), higher = larger tumour
# [8] = endpoint: median tumor weight (est.), dose: 12.5 mg/kg/injection, schedule: Q07DX002 (ip), vehicle: Klucel (hydroxypropylcellulose) (HPC), higher = larger tumour
smiles,measurement,setting,value
CCCCCC(O)C1C(=O)OC(C)C(O)/C=C/C=C/C=C/C=C\C=C(\C)C(O)CC(O)CC(O)CC(O)CC(O)CC(O)CC1O (stereo unspecified),T/C,"endpoint: median tumor weight (est.), dose: 2.5 mg/kg/injection, schedule: Q07DX002 (ip), vehicle: saline, higher = larger tumour",105 % of control
same,T/C,"endpoint: median tumor weight (est.), dose: 5.0 mg/kg/injection, schedule: Q07DX002 (ip), vehicle: saline, higher = larger tumour",64 % of control
same,T/C,"endpoint: median tumor weight (est.), dose: 20.0 mg/kg/injection, schedule: Q07DX002 (ip), vehicle: saline, higher = larger tumour",71 % of control
CCC1=C[C@H]2CN(CCc3c([nH]c4ccccc34)[C@@](C(=O)OC)(c3cc4c(cc3OC)N(C)[C@H]3[C@@](O)(C(=O)NC)[C@H](OC(C)=O)[C@]5(CC)C=CCN6CC[C@]43[C@@H]65)C2)C1,T/C,"endpoint: median tumor weight (est.), dose: 0.03 mg/kg/injection, schedule: Q07DX002 (ip), vehicle: saline, higher = larger tumour",116 % of control
same,T/C,"endpoint: median tumor weight (est.), dose: 0.06 mg/kg/injection, schedule: Q07DX002 (ip), vehicle: saline, higher = larger tumour",84 % of control
same,T/C,"endpoint: median tumor weight (est.), dose: 0.12 mg/kg/injection, schedule: Q07DX002 (ip), vehicle: saline, higher = larger tumour",90 % of control
same,T/C,"endpoint: median tumor weight (est.), dose: 0.5 mg/kg/injection, schedule: Q07DX002 (ip), vehicle: saline, higher = larger tumour",108 % of control
same,T/C,"endpoint: median tumor weight (est.), dose: 1.0 mg/kg/injection, schedule: Q07DX002 (ip), vehicle: saline, higher = larger tumour",90 % of control
C=C1C(=O)OCC1(C(=O)OCC)C(=O)OCC,T/C,"endpoint: median tumor weight (est.), dose: 12.5 mg/kg/injection, schedule: Q07DX002 (ip), vehicle: saline with Tween-80, higher = larger tumour",42 % of control and 62 % of control and 66 % of control
same,T/C,[1],88 % of control
CN(C1=NS(=O)(=O)N=C(N(C)c2ccccc2)O1)c1ccccc1,T/C,"endpoint: median tumor weight (est.), dose: 12.5 mg/kg/injection, schedule: Q07DX003 (ip), vehicle: Klucel (hydroxypropylcellulose) (HPC), higher = larger tumour",103 % of control
same,T/C,"endpoint: median tumor weight (est.), dose: 25.0 mg/kg/injection, schedule: Q07DX003 (ip), vehicle: Klucel (hydroxypropylcellulose) (HPC), higher = larger tumour",68 % of control
same,T/C,[2],119 % of control
same,T/C,"endpoint: median tumor weight (est.), dose: 100.0 mg/kg/injection, schedule: Q07DX003 (ip), vehicle: Klucel (hydroxypropylcellulose) (HPC), higher = larger tumour",101 % of control
same,T/C,[3],110 % of control
same,T/C,"endpoint: median tumor weight (est.), dose: 200.0 mg/kg/injection, schedule: Q07DX003 (ip), vehicle: Klucel (hydroxypropylcellulose) (HPC), higher = larger tumour",113 % of control
same,T/C,[4],162 % of control
same,T/C,"endpoint: median tumor weight (est.), dose: 400.0 mg/kg/injection, schedule: Q07DX003 (ip), vehicle: Klucel (hydroxypropylcellulose) (HPC), higher = larger tumour",113 % of control
same,T/C,[5],104 % of control
same,T/C,"endpoint: median tumor weight (est.), dose: 1600.0 mg/kg/injection, schedule: Q07DX002 (ip), vehicle: Klucel (hydroxypropylcellulose) (HPC), higher = larger tumour",159 % of control
CN(C)[C@@H]1C(=O)C(C(N)=O)=C(O)[C@@]2(O)C(=O)C3=C(O)c4c(O)ccc(Cl)c4[C@@](C)(O)[C@H]3C[C@@H]12,T/C,"endpoint: median tumor weight (est.), dose: 25.0 mg/kg/injection, schedule: Q07DX002 (ip), vehicle: saline, higher = larger tumour",182 % of control
same,T/C,"endpoint: median tumor weight (est.), dose: 25.0 mg/kg/injection, schedule: Q07DX002 (ip), vehicle: suspension in saline, higher = larger tumour",82 % of control
same,T/C,"endpoint: median tumor weight (est.), dose: 50.0 mg/kg/injection, schedule: Q07DX002 (ip), vehicle: saline, higher = larger tumour",188 % of control
same,T/C,"endpoint: median tumor weight (est.), dose: 50.0 mg/kg/injection, schedule: Q07DX002 (ip), vehicle: suspension in saline, higher = larger tumour",119 % of control
same,T/C,"endpoint: median tumor weight (est.), dose: 100.0 mg/kg/injection, schedule: Q07DX002 (ip), vehicle: saline, higher = larger tumour",117 % of control
same,T/C,"endpoint: median tumor weight (est.), dose: 100.0 mg/kg/injection, schedule: Q07DX002 (ip), vehicle: suspension in saline, higher = larger tumour",80 % of control
same,T/C,"endpoint: median tumor weight (est.), dose: 200.0 mg/kg/injection, schedule: Q07DX002 (ip), vehicle: saline, higher = larger tumour",93 % of control
same,T/C,"endpoint: median tumor weight (est.), dose: 200.0 mg/kg/injection, schedule: Q07DX002 (ip), vehicle: suspension in saline, higher = larger tumour",93 % of control
same,T/C,"endpoint: median tumor weight (est.), dose: 400.0 mg/kg/injection, schedule: Q07DX002 (ip), vehicle: suspension in saline, higher = larger tumour",65 % of control
Oc1c(Cl)cc(Cl)cc1C1N2CCCCC2C2c3cccn3-c3ccccc3N21 (stereo unspecified),T/C,[6],82 % of control
same,T/C,[7],102 % of control
same,T/C,[2],69 % of control
same,T/C,[3],104 % of control
same,T/C,[4],67 % of control
C=CC(C)NC(=S)NNC(=S)NC (stereo unspecified),T/C,"endpoint: median tumor weight (est.), dose: 50.0 mg/kg/injection, schedule: Q07DX002 (ip), vehicle: saline + alcohol, higher = larger tumour",97 % of control
same,T/C,"endpoint: median tumor weight (est.), dose: 100.0 mg/kg/injection, schedule: Q07DX002 (ip), vehicle: saline + alcohol, higher = larger tumour",112 % of control
same,T/C,"endpoint: median tumor weight (est.), dose: 200.0 mg/kg/injection, schedule: Q07DX002 (ip), vehicle: saline + alcohol, higher = larger tumour",104 % of control
same,T/C,"endpoint: median tumor weight (est.), dose: 400.0 mg/kg/injection, schedule: Q07DX002 (ip), vehicle: saline + alcohol, higher = larger tumour",86 % of control
CCn1cnc2c(=S)nc[nH]c21,T/C,"endpoint: median tumor weight (est.), dose: 25.0 mg/kg/injection, schedule: Q07DX002 (ip), vehicle: saline with Tween-80, higher = larger tumour",87 % of control
same,T/C,[1],64 % of control
same,T/C,"endpoint: median tumor weight (est.), dose: 100.0 mg/kg/injection, schedule: Q07DX002 (ip), vehicle: saline with Tween-80, higher = larger tumour",57 % of control
same,T/C,"endpoint: median tumor weight (est.), dose: 200.0 mg/kg/injection, schedule: Q07DX002 (ip), vehicle: saline with Tween-80, higher = larger tumour",21 % of control
CC(C)CCC[C@@H](C)[C@H]1CC[C@H]2[C@@H]3CC=C4C[C@@H](OC(=O)Cc5ccc(N(CCCl)CCCl)cc5)CC[C@]4(C)[C@H]3CC[C@]12C,T/C,[6],85 % of control
same,T/C,[7],111 % of control
same,T/C,[2],103 % of control
same,T/C,[3],103 % of control
same,T/C,[4],77 % of control
same,T/C,[5],82 % of control
CCCC[C@H]1C(=O)O[C@H](C)[C@H](NC(=O)c2cccc(NC=O)c2O)C(=O)O[C@@H](C)[C@@H]1OC(=O)CC(C)C,T/C,"endpoint: median tumor weight (est.), dose: 0.5 mg/kg/injection, schedule: Q07DX002 (ip), vehicle: Klucel (hydroxypropylcellulose) (HPC), higher = larger tumour",177 % of control
same,T/C,"endpoint: median tumor weight (est.), dose: 1.0 mg/kg/injection, schedule: Q07DX002 (ip), vehicle: Klucel (hydroxypropylcellulose) (HPC), higher = larger tumour",224 % of control
CCCCCC[C@H]([C@H](C)O)n1cnc2c(N)ncnc21,T/C,"endpoint: median survival time, dose: 22.0 mg/kg/injection, schedule: Q02DX006 (iv), vehicle: saline, higher = longer survival",113 % of control
same,T/C,"endpoint: median survival time, dose: 36.0 mg/kg/injection, schedule: Q02DX006 (iv), vehicle: saline, higher = longer survival",111 % of control
same,T/C,"endpoint: median survival time, dose: 58.0 mg/kg/injection, schedule: Q02DX006 (iv), vehicle: saline, higher = longer survival",92 % of control
same,T/C,"endpoint: median survival time, dose: 93.0 mg/kg/injection, schedule: Q02DX006 (iv), vehicle: saline, higher = longer survival",115 % of control
same,T/C,"endpoint: median tumor weight (est.), dose: 6.25 mg/kg/injection, schedule: Q07DX002 (ip), vehicle: Klucel (hydroxypropylcellulose) (HPC), higher = larger tumour",91 % of control
same,T/C,[8],194 % of control
same,T/C,[2],117 % of control and 103 % of control
Cc1c(N)nc(C(CC(N)=O)NCC(N)C(N)=O)nc1C(=O)NC(C(=O)NC(C)C(O)CC(=O)NC(C(=O)NC(OC1OC(C)C(N)C(O)C1O)C(O)c1nc(-c2nc(C(=O)NCCCC(N)CC(=O)NCCCNCCCCN)cs2)cs1)C(C)O)C(OC1OC(CO)C(O)C(O)C1OC1OC(CO)C(O)C(OC(N)=O)C1O)c1cnc[nH]1 (stereo unspecified),T/C,"endpoint: median tumor weight (est.), dose: 2.0 mg/kg/injection, schedule: Q07DX002 (ip), vehicle: saline, higher = larger tumour",56 % of control
same,T/C,"endpoint: median tumor weight (est.), dose: 4.0 mg/kg/injection, schedule: Q07DX002 (ip), vehicle: saline, higher = larger tumour",43 % of control
same,T/C,"endpoint: median tumor weight (est.), dose: 8.0 mg/kg/injection, schedule: Q07DX002 (ip), vehicle: saline, higher = larger tumour",25 % of control
same,T/C,"endpoint: median tumor weight (est.), dose: 16.0 mg/kg/injection, schedule: Q07DX002 (ip), vehicle: saline, higher = larger tumour",19 % of control
same,T/C,"endpoint: median tumor weight (est.), dose: 32.0 mg/kg/injection, schedule: Q07DX002 (ip), vehicle: saline, higher = larger tumour",6 % of control
O=C(O)CC(=O)O.[NH-]C1CCCCC1[NH-].[Pt+2] (stereo unspecified),T/C,"endpoint: median tumor weight (est.), dose: 12.5 mg/kg/injection, schedule: Q07DX002 (ip), vehicle: dextrose, higher = larger tumour",84 % of control
same,T/C,"endpoint: median tumor weight (est.), dose: 20.0 mg/kg/injection, schedule: Q07DX003 (ip), vehicle: dextrose, higher = larger tumour",120 % of control
same,T/C,"endpoint: median tumor weight (est.), dose: 25.0 mg/kg/injection, schedule: Q07DX002 (ip), vehicle: dextrose, higher = larger tumour",55 % of control and 64 % of control
same,T/C,"endpoint: median tumor weight (est.), dose: 40.0 mg/kg/injection, schedule: Q07DX003 (ip), vehicle: dextrose, higher = larger tumour",48 % of control
same,T/C,"endpoint: median tumor weight (est.), dose: 50.0 mg/kg/injection, schedule: Q07DX002 (ip), vehicle: dextrose, higher = larger tumour",12 % of control and 35 % of control
same,T/C,"endpoint: median tumor weight (est.), dose: 80.0 mg/kg/injection, schedule: Q07DX003 (ip), vehicle: dextrose, higher = larger tumour",9 % of control
CCOC(=O)c1ccc(NC(=O)Nc2nncs2)cc1,T/C,"endpoint: median tumor weight (est.), dose: 12.5 mg/kg/injection, schedule: Q07DX002 (ip), vehicle: distilled water + Tween-80, higher = larger tumour",194 % of control
same,T/C,"endpoint: median tumor weight (est.), dose: 25.0 mg/kg/injection, schedule: Q07DX002 (ip), vehicle: distilled water + Tween-80, higher = larger tumour",90 % of control
same,T/C,"endpoint: median tumor weight (est.), dose: 50.0 mg/kg/injection, schedule: Q07DX002 (ip), vehicle: distilled water + Tween-80, higher = larger tumour",94 % of control
Cc1ncc(CNC(=O)N(CCCl)N=O)c(N)n1,T/C,"endpoint: median tumor weight (est.), dose: 6.25 mg/kg/injection, schedule: Q07DX003 (ip), vehicle: saline, higher = larger tumour",82 % of control
same,T/C,[8],73 % of control
same,T/C,"endpoint: median tumor weight (est.), dose: 12.5 mg/kg/injection, schedule: Q07DX003 (ip), vehicle: saline, higher = larger tumour",88 % of control
same,T/C,[6],32 % of control
same,T/C,"endpoint: median tumor weight (est.), dose: 25.0 mg/kg/injection, schedule: Q07DX003 (ip), vehicle: saline, higher = larger tumour",31 % of control
